Tests used:
[1] = system: HUVEC (Human Umbilical Vein Endothelial Cell); assay: HUVEC proliferation (MTT); type: cell-based
Experimental: An endothelial cell, HUVEC (Human Umbilical Vein Endothelial Cell) (innopharmascreen co. ltd., Korea) was incubated in a EGM®^2 culture medium (Lonza) and then 100 μL of the cell solution with a concentration of 2×10^4/ml was distributed per each well and incubated in a 5% CO2 cultivator at 37° C. for 16 hours. After 16 hours, the culture medium was replaced and seven types of samples were treated. Among the seven types of samples were the control group as treated only with a culture medium, and the groups treated with 50 μM, 100 μM, and 200 μM of genistein solutions and the solutions of the genistein-loaded hyaluronic acid-peptide conjugate of Example 1 comprising 50 μM, 100 μM, and 200 μM of genistein, respectively. 10 μL of each sample and 100 μL of the culture medium were mixed and treated. After the samples were treated, they were incubated in 5% CO2 incubator at 37° C. and the culture media with the samples being mixed therein […] once a day. After three days, the culture media were removed and the samples were treated with 110 μL of an MTT solution (Amresco Co. (Solon, Ohio)), and incubated in a cultivator at 37° C. for two hours and then 50 μL of DMSO was added thereto to measure a light absorbency at 540 nm. The light absorbance as measured was compared with the light absorbance of the control group and the degree of the cell growth was calculated.

[2] = system: vascular hyperpermeability due to diabetic retinopathy; assay: Vascular hyperpermeability due to diabetic retinopathy, genistein-loaded micelle (Experimental Example 14); type: in vivo, Sprague Dawley (SD) male rats
Experimental: First, each rat was injected intraperitonially with 60 mg/kg of streptozotocin dissolved in 10 mM citrate buffer at pH 4.5 in order for diabetes to be induced. In three days after the injection of streptozotocin, the rat was determined to develop diabetes when its serum concentration of glucose was at least 300 mg/dL. In a week after the injection of streptozotocin, 10 μL of each sample solution was injected into the vitroeus body.

[3] = system: corneal neovascularization; assay: Corneal neovascularization, genistein-loaded micelle (Experimental Example 13); type: in vivo, Albino Sprague Dawley male rats
[4] = system: corneal neovascularization; assay: Corneal neovascularization after silver nitrate cauterization (Experimental Example 8); type: in vivo, Albino Sprague Dawley male rats; conditions: rat cornea, subconjunctival 20 μL; Avastin 10 mg/ml, peptide and conjugate […] peptide; NV control 90.8±5%
Experimental: All animal tests including this experiment were conducted in compliance with the guidelines of the Catholic University of Korea and the principles of laboratory animal care; NIH publication No. 85-23 revised in 1985.
The rat was put under anesthesia by an intra-peritoneal injection of a mixed solution of 20 mg/kg of ketamine hydrochloride and 2.5 mg/kg of xylazine hydrochloride. […] In 3 days after the cauterization, subconjunctival administration was conducted with 20 μL of each of 4 sample solutions (a normal control group, NV control (neovascularization control: a control group wherein angiogenesis was made to occur and no drug was treated thereon), a solution comprising Avastin (Roche) dissolved in PBS at a concentration of 10 mg/ml, a solution comprising anti-Flt1 peptide (GGNQWFI) (SEQ ID NO: 3) dissolved in PBS at a concentration of 2.5 mg/ml, and a solution comprising the hyaluronic acid-peptide conjugate with a lower peptide concentration obtained from Preparation Example 3 as dissolved in PBS at a concentration of 2.5 mg/ml based on the content of anti-Flt1 peptide). […] The obtained images were subjected to quantitative analysis with Image J program (Ver. 1.38, National Institute of Health, MD).

[5] = genistein as dispersed in water, 6.2 mg/ml
[6] = genistein as dissolved in DMSO, 6.2 mg/ml

Compound	HUVEC growth inhibition, comparison of genistein alone with micelle ([1]; genistein alone at 200 uM versus genistein-loaded micelle at 50 uM)	HUVEC cell number relative to control group (100%) ([1]; genistein concentration 100 μm (so in the source), 3 days, MTT) [%]	average intensity of the fluorescence of retina relative to normal group (1) [2, 5]	average intensity of the fluorescence of retina relative to normal group (1) [2, 6]	average ratio of the neovascular area [3, 5] [%]	average ratio of the neovascular area [3, 6] [%]	average intensity of the fluorescence of retina relative to normal group (1) ([2]; normal = 1, negative control 2.54±0.20, Avastin 10 mg/ml, micelle 3.2 mg/ml peptide, four weeks after streptozotocin)	average ratio of the neovascular area ([3]; rat cornea, samples in PBS: Avastin 10 mg/ml, conjugate and micelle 3.2 mg/ml peptide, control group 86%) [%]	average ratio of the neovascular area [4] [%]
O=c1c(-c2ccc(O)cc2)coc2cc(O)cc(O)c12 [genistein]	inferior to the results obtained from the group treated with the genistein-loaded micelle at its lowest concentration (50 uM)	70.5±3.5	2.38±0.20	2.00±0.16	68	38			
Avastin: Avastin (Roche), positive control							1.49±0.17	23	35.4±6.6
